The results in this text go back to PubChem BioAssay (NCI).

Several values for one entry are separate records, joined by “and”; a condition that tells them apart may be missing. Identical values can stand only once.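 Compound exposure: 48 hours, 5 concentrations, 96-well plates. GI50 = concentration required for 50% inhibition of growth. TGI: total growth inhibition.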 Bounds are passed on as bounds.

Experiment in all cases: NCI-60 cell line screen, 48 h
Assay [1] has as its system MCF7 breast.
Assay [2] concerns NCI-H522 lung.
Assay [3] has as its system RXF 393 renal.
The subject of assay [4] is RPMI-8226 leukemia.
Assay [5] concerns COLO 205 colon.
In assay [6] the test system is HCC-2998 colon.
In assay [7] the test system is IGROV1 ovarian.
Assay [8] relates to NCI-H460 lung.
Assay [9] relates to HCT-116 colon.
Assay [10] has as its system SK-MEL-2 melanoma.

On to `CC1(C)CC2=NO[Se]3=C2C(=NO3)C1`, for which the TGI came to 14.2 µM in assay [1]; 5.46 µM in assay [2]; 9.18 µM in assay [3]; 18.5 µM in assay [4]; 3.73 µM in assay [5]; 16.8 µM in assay [6]. In addition, the TGI in assay [7] was found to be 6.43 µM; in assay [8], 4.05 µM; in [9], 10.4 µM; in assay [10] it was 24.8 µM.

For the compound `COc1cc(NC(=O)COc2ccccc2)c(C(N)=O)cc1OC`, the GI50 in assay [1] was 0.661 µM; in assay [2], 0.41 µM; in [3], 1.69 µM; in assay [4] it was 2.27 µM; in [5], 0.453 µM; in assay [6], 3.33 µM. Further, the results for the GI50 in assay [7], in [8] and in assay [9] were 4.07 µM, 0.529 µM and 0.62 µM, respectively. Also, the TGI in [1] was more than 100 µM; in assay [2], 7.06 µM; in assay [3], 9.52 µM; in [4], more than 100 µM; in [5], 5.13 µM; in assay [6] it was 68.3 µM. The TGI in assay [7], in assay [8] and in assay [9] was more than 100 µM each time.

For the compound `CC(C)c1ccc2c(c1)CCC1C2CCCC1(C)NCc1ccccc1` (stereo not drawn), the GI50 was 2.53 µM in [1]; 1.68 µM in [2]; 2.44 µM in assay [3]; 2.02 µM in assay [4]; 0.332 µM in [5]; 0.608 µM in assay [6]. In addition, the GI50 in assay [7] is 6.43 µM; in assay [8], 3.43 µM; in assay [9], 4.21 µM; in assay [10], 2.04 µM. For the same compound, the TGI was determined as 6.76 µM in [1]; 3.55 µM in [2]; 4.66 µM in assay [3]; 4.98 µM in assay [4]; 1.11 µM in [5]; 2.01 µM in assay [6]. Further, the TGI in assay [7] is 20.7 µM; in assay [8], 12.9 µM; in assay [9], 14.7 µM; in [10], 4.16 µM.

For the compound `C=C(C)c1nc(Oc2ccccc2)nc(Oc2ccccc2)n1`, the TGI turned out to be 12.6 µM in [1]; 2.73 µM in [2]; 8.11 µM in [3]; 12 µM in [4]; 17.2 µM in [5]; 8.18 µM in [6]. Moreover, the TGI was 22.4 µM in [7], 22.8 µM in [8], 10.5 µM in assay [9] and 9.51 µM in [10].

`CCCCCCCCCCCCOC1C(C(COC2OC(C(O)CO)C3OC(C)(C)OC23)OC(=O)Nc2ccccc2)OC2OC(C)(C)OC21` (stereo not drawn): the GI50 in [1] was 3.85 µM; in assay [2], 9.89 µM; in assay [3] it was 4.33 µM; in assay [4] it was 3.93 µM; in assay [5], 5.51 µM; in assay [6], 5.39 µM. In addition, the GI50 in assay [7] is 4.94 µM; in [8], 3.88 µM; in assay [9] it was 2.14 µM; in assay [10], 16.3 µM. The TGI in assay [1] worked out at 13.6 µM; in assay [2] it was 29.2 µM; in [3], 12.6 µM; in [4] it was 15.2 µM; in assay [5], 16.6 µM; in assay [6], 10.4 µM. In addition, the TGI in assay [7] was determined as 15.3 µM; in [8], 13.3 µM; in assay [9], 5.79 µM; in assay [10], 32.4 µM.

Consider `O=C(O)CSc1cc(NS(=O)(=O)c2ccc(Br)cc2)c2ccccc2c1O`, for which the GI50 was 5.71 µM in assay [1]; 16.2 µM in [2]; 13.8 µM in [3]; 5.33 µM in [4]; 13.1 µM in [5]; 18.4 µM in [6]. Besides, the GI50 in assay [7] is 3.03 µM; in assay [8] it was 18.8 µM; in assay [9], 5.65 µM; in [10] it was 9.92 µM. In addition, the TGI in assay [1] was found to be 19.8 µM; in assay [2], 33.7 µM; in assay [3], 27.9 µM; in assay [4] it was 29.9 µM; in assay [5], 28.4 µM; in assay [6], 33.9 µM. For the same compound, the TGI in assay [7] is 8.76 µM; in assay [8], 37.4 µM; in [9], 16.2 µM; in assay [10], 28.6 µM.

With `O=C1NC(=O)C2C3C=CC(C12)C1C2C(=O)NC(=O)C2C31` (stereo not drawn), the GI50 in assay [1] is 537 µM; in [2] it was 261 µM; in assay [3] it was more than 1000 µM; in assay [4], > 76.6 µM and 577 µM; in assay [5] it was > 62.6 µM and 108 µM; in assay [6], more than 587 µM. Also, the GI50 in assay [7] is more than 770 µM; in assay [8], 47 µM and 74.4 µM; in [9] it was > 39.9 µM and 308 µM; in [10], more than 719 µM. For the same compound, the TGI in [1] was 250 µM and > 1000 µM; in assay [2], 235 µM and 864 µM; in assay [3] it was 250 µM and > 1000 µM; in [4], 203 µM and > 1000 µM; in assay [5] it was 198 µM and > 892 µM; in [6] it was 250 µM and > 1000 µM. Moreover, the TGI is 248 µM and > 1000 µM in assay [7]; 203 µM and > 1000 µM in [8]; > 55.9 µM and 250 µM and > 1000 µM in assay [9]; 244 µM and > 1000 µM in [10].

For `COc1ccc(-c2c(Nc3ccccn3)nc3c(C4=CCCCC4)c(-c4ccccc4)[nH]n3c2=O)cc1`, the GI50 in assay [1] was 1.81 µM; in [2], 3.55 µM; in [3] it was 2.55 µM; in assay [4], 1.43 µM; in [5], 2.34 µM; in assay [6] it was 3.7 µM. The GI50 in assay [7] is 3.5 µM; in assay [8], 0.645 µM; in assay [9], 1.32 µM; in assay [10], 2.21 µM. The TGI in assay [1] is 15.5 µM; in assay [2] it was 23.9 µM; in assay [3] it was 11.6 µM; in assay [4], 5.66 µM; in assay [5] it was more than 100 µM; in assay [6] it was more than 100 µM. Besides, the TGI in assay [7] stood at 51.4 µM; in assay [8], 14 µM; in assay [9], 11.8 µM; in assay [10] it was 9.54 µM.
